Data reported in patent US9926302B2, “Heteroaryl substituted heterocyclyl sulfones” (priority 2014, dated 2018).

biological target: T1, Human CaV2.2 channels (Homo sapiens, UniProt Q00975); assay: Fluorescence assay for CaV2.2 channels using potassium depolarization to induce channel opening (FLIPR, Fluo 4); format: cell-based; settings: 3 μM test compound; alternative assay buffer 30 mM KCl (inactivated channel state); HEK293 cells stably expressing human CaV2.2
T1 construct: expressed in transfected cells
T1 sequence (P54289 947-1103): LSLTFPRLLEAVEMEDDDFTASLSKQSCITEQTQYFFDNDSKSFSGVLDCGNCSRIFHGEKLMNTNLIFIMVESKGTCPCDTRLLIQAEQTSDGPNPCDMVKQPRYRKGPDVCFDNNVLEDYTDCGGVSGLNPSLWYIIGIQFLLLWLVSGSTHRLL
T1 sequence (P54289 25-946): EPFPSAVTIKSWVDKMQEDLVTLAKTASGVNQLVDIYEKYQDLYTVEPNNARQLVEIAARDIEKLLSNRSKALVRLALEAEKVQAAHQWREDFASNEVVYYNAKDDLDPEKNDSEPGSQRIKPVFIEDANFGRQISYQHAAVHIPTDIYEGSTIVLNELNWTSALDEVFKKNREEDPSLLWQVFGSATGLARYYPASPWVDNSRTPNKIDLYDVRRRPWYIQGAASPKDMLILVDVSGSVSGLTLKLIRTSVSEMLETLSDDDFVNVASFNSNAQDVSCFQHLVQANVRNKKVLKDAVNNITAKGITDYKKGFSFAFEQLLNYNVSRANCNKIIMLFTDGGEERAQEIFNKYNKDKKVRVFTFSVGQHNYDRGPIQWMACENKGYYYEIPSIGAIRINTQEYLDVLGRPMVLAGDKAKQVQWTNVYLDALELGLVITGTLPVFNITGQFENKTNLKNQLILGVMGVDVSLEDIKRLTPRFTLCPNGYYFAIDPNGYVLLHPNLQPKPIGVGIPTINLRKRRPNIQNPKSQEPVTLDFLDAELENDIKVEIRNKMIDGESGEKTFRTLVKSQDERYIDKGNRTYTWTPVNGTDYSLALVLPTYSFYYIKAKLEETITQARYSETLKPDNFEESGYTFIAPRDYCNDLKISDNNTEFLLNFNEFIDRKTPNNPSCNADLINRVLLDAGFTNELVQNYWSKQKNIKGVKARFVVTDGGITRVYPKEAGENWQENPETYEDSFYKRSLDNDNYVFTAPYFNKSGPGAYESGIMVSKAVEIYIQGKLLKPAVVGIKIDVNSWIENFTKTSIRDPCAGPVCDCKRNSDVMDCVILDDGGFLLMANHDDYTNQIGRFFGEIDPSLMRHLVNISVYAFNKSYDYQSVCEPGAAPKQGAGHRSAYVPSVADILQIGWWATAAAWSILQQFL
T1 sequence (P54284 whole entry, further chain): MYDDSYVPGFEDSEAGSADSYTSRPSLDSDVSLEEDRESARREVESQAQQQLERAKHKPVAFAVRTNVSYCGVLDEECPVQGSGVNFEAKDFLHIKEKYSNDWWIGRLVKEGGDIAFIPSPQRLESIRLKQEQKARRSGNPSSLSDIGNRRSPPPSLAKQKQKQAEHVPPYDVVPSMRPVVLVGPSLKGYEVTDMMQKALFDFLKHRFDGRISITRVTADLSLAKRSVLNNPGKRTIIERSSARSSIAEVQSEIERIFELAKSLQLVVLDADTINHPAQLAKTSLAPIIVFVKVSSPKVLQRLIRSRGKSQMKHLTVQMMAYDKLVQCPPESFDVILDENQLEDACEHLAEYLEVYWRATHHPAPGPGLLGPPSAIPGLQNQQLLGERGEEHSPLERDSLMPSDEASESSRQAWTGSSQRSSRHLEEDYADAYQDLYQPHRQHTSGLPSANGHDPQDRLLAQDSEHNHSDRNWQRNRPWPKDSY
T1 sequence (Q00975 whole entry): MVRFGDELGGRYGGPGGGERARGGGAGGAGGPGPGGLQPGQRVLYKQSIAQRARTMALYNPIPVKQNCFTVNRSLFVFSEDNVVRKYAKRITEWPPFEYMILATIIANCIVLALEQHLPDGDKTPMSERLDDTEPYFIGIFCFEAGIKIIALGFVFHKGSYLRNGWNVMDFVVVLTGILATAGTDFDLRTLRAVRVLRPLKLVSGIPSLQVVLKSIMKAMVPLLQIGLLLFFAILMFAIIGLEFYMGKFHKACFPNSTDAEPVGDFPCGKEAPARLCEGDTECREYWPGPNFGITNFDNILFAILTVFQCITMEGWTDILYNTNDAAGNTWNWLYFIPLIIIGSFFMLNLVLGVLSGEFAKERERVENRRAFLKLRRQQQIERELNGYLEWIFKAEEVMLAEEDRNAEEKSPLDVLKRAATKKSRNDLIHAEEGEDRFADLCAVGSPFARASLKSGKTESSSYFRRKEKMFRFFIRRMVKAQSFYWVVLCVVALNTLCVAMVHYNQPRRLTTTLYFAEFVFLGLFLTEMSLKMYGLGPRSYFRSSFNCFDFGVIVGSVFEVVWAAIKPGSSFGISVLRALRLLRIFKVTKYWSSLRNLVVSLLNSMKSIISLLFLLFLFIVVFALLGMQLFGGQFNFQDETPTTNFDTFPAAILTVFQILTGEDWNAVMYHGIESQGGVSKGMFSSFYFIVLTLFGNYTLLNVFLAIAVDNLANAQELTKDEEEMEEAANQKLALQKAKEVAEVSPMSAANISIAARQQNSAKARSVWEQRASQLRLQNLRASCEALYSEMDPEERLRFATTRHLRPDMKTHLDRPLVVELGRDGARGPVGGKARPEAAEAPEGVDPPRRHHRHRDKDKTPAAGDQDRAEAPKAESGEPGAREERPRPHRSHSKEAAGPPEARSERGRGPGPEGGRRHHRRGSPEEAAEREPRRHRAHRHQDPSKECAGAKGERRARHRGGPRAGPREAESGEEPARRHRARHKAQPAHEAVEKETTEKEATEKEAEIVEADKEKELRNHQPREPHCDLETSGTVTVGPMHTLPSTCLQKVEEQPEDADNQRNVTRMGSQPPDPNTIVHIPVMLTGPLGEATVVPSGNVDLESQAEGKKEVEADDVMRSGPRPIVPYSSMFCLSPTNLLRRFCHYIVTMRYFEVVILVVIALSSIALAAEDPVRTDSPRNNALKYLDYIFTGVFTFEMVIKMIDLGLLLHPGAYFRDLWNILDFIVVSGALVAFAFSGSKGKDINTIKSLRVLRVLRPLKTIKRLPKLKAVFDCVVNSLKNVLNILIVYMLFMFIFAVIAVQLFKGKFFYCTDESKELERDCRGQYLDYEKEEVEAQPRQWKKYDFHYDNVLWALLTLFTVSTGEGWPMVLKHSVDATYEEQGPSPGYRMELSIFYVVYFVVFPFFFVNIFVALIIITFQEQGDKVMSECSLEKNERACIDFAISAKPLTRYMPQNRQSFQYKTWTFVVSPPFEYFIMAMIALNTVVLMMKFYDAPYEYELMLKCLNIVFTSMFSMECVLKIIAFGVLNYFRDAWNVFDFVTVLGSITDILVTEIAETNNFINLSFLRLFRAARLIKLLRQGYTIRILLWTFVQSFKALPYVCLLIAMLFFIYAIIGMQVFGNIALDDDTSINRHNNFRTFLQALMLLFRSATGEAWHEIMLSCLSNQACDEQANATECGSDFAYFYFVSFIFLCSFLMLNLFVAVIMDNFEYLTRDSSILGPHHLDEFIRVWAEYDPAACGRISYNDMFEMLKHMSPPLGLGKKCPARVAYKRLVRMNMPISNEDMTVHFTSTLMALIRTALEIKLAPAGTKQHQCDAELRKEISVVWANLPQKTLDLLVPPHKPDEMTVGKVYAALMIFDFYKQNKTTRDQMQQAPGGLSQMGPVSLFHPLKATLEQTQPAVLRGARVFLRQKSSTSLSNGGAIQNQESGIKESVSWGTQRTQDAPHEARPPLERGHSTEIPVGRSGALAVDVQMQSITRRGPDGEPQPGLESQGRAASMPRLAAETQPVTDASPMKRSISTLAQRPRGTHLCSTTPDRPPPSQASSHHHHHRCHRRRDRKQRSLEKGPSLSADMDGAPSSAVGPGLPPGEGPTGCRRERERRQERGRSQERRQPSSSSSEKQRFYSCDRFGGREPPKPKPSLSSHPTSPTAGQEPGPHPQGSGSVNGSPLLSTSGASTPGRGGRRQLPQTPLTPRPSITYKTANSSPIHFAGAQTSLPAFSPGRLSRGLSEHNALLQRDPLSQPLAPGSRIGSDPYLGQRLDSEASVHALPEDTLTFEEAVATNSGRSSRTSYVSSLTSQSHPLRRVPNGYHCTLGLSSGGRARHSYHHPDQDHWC
How it was run: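 HEK293 cells stably co-expressing CaV2.2 with alpha2-delta and beta subunits plus Kir2.3, loaded with 2 μM Fluo 4 and pre-incubated 15 min at 25° C with compound in 1 mM or 30 mM KCl buffer (pH 7.4; latter promotes inactivated state). Depolarized by KCl addition; peak fluorescence amplitude normalized to baseline gives inhibition.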

Compound	Activity Category: %-Inhib (CaV2.2) @3 μM @30 mM KCl
Cn1nc(S(C)(=O)=O)cc1C1CC(C)(S(=O)(=O)c2cccc(C(F)(F)F)c2)CCO1 (stereo not drawn) [SC-429, 1-Methyl-3-methylsulfonyl-5-[4-methyl-4-[[3-(trifluoromethyl)phenyl]sulfonyl]-tetrahydro-pyran-2-yl]-1H-pyrazole]	C (%-Inhibition >40% up to ≤75%)
Cn1nc(S(C)(=O)=O)cc1C1CC(C)(S(=O)(=O)c2cccc(C(F)(F)F)c2)CCO1 (stereo not drawn) [SC-430, 1-Methyl-3-methylsulfonyl-5-[4-methyl-4-[[3-(trifluoromethyl)phenyl]sulfonyl]-tetrahydro-pyran-2-yl]-1H-pyrazole]	B (%-Inhibition >75% up to ≤95%)
Cn1nc(C2CC2)cc1C1CC(C)(S(=O)(=O)c2cccc(C(F)(F)F)c2)CCO1 (stereo not drawn) [SC-432, 3-Cyclopropyl-1-methyl-5-[4-methyl-4-[[3-(trifluoromethyl)phenyl]sulfonyl]-tetrahydro-pyran-2-yl]-1H-pyrazole]	A (%-Inhibition >95%)
CC1(S(=O)(=O)c2cccc(OC(F)F)c2)CCOC(c2ncc(S(C)(=O)=O)cc2Cl)C1 (stereo not drawn) [SC-436, 3-Chloro-2-[4-[[3-(difluoro-methoxy)-phenyl]sulfonyl]-4-methyl-tetrahydro-pyran-2-yl]-5-methylsulfonyl-pyridine]	C (%-Inhibition >40% up to ≤75%)
CC1(S(=O)(=O)c2cccc(OC(F)F)c2)CCOC(c2ncc(S(C)(=O)=O)cc2Cl)C1 (stereo not drawn) [SC-437, 3-Chloro-2-[4-[[3-(difluoro-methoxy)-phenyl]sulfonyl]-4-methyl-tetrahydro-pyran-2-yl]-5-methylsulfonyl-pyridine]	B (%-Inhibition >75% up to ≤95%)
CC1(S(=O)(=O)c2cccc(Cl)c2)CCOC(c2ncc(S(C)(=O)=O)cc2Cl)C1 (stereo not drawn) [SC-439, 3-Chloro-2-[4-[(3-chlorophenyl)sulfonyl]-4-methyl-tetrahydro-pyran-2-yl]-5-methylsulfonyl-pyridine]	C (%-Inhibition >40% up to ≤75%)
CC1(S(=O)(=O)c2cccc(Cl)c2)CCOC(c2ncc(S(C)(=O)=O)cc2Cl)C1 (stereo not drawn) [SC-440, 3-Chloro-2-[4-[(3-chlorophenyl)sulfonyl]-4-methyl-tetrahydro-pyran-2-yl]-5-methylsulfonyl-pyridine]	B (%-Inhibition >75% up to ≤95%)
Cc1cc(S(C)(=O)=O)cnc1C1CC(C)(S(=O)(=O)c2cc(F)cc(C(F)(F)F)c2)CCO1 (stereo not drawn) [SC-444, 2-[4-[[3-Fluoro-5-(trifluoromethyl)-phenyl]sulfonyl]-4-methyl-tetrahydro-pyran-2-yl]-3-methyl-5-methylsulfonyl-pyridine]	B (%-Inhibition >75% up to ≤95%)
Cc1cc(S(C)(=O)=O)cnc1C1CC(C)(S(=O)(=O)c2cc(F)cc(C(F)(F)F)c2)CCO1 (stereo not drawn) [SC-445, 2-[4-[[3-Fluoro-5-(trifluoromethyl)-phenyl]sulfonyl]-4-methyl-tetrahydro-pyran-2-yl]-3-methyl-5-methylsulfonyl-pyridine]	C (%-Inhibition >40% up to ≤75%)
CC(C)c1cccc(S(=O)(=O)C2(C)CCOC(c3ncc(S(C)(=O)=O)cc3Cl)C2)c1 (stereo not drawn) [SC-447, 3-Chloro-2-[4-[(3-isopropyl-phenyl)sulfonyl]-4-methyl-tetrahydro-pyran-2-yl]-5-methylsulfonyl-pyridine]	A (%-Inhibition >95%)
Cc1cc(S(C)(=O)=O)cnc1C1CC(C)(S(=O)(=O)c2cccc(OC(F)(F)F)c2)CCO1 (stereo not drawn) [SC-449, 3-Methyl-5-methylsulfonyl-2-[4-methyl-4-[[3-(trifluoromethyloxy)-phenyl]sulfonyl]-tetrahydro-pyran-2-yl]-pyridine]	B (%-Inhibition >75% up to ≤95%)
Cc1cc(S(C)(=O)=O)cnc1C1CC(C)(S(=O)(=O)c2cccc(OC(F)(F)F)c2)CCO1 (stereo not drawn) [SC-450, 3-Methyl-5-methylsulfonyl-2-[4-methyl-4-[[3-(trifluoromethyloxy)-phenyl]sulfonyl]-tetrahydro-pyran-2-yl]-pyridine]	C (%-Inhibition >40% up to ≤75%)

same assay, conditions: HEK293, 3 μM test compound; alternative assay buffer 30 mM KCl (inactivated channel state); HEK293 cells stably expressing human CaV2.2; read-out: Activity Category: %-Inhib (CaV2.2) @3 μM @30 mM KCl

Compound	inhibition at 3 µM
CN(C)c1cnc(C2CC(C)(S(=O)(=O)c3cccc(C(F)(F)F)c3)CCO2)cn1 (stereo not drawn) [SC-421, Dimethyl-[5-[4-methyl-4-[[3-(trifluoromethyl)phenyl]sulfonyl]-tetrahydro-pyran-2-yl]-pyrazin-2-yl]-amine]	75 to 95%
CC1(S(=O)(=O)c2cccc(C(F)(F)F)c2)CCOC(c2ncc(C3CC3)cc2Cl)C1 (stereo not drawn) [SC-425, 3-Chloro-5-cyclopropyl-2-[4-methyl-4-[[3-(trifluoromethyl)phenyl]sulfonyl]-tetrahydro-pyran-2-yl]-pyridine]	> 95%
CC1(S(=O)(=O)c2cccc(C(F)(F)F)c2)CCOC(c2ncc(OC(F)F)cc2Cl)C1 (stereo not drawn) [SC-427, 3-Chloro-5-(difluoro-methoxy)-2-[4-methyl-4-[[3-(trifluoromethyl)phenyl]sulfonyl]-tetrahydro-pyran-2-yl]-pyridine]	> 95%
Cn1nc(C2CC2)cc1C1CC(C)(S(=O)(=O)c2cccc(C(F)(F)F)c2)CCO1 (stereo not drawn) [SC-431, 3-Cyclopropyl-1-methyl-5-[4-methyl-4-[[3-(trifluoromethyl)phenyl]sulfonyl]-tetrahydro-pyran-2-yl]-1H-pyrazole]	75 to 95%
Cc1cc(S(C)(=O)=O)cnc1C1CC(C)(S(=O)(=O)c2cc(F)cc(C(F)F)c2)CCO1 (stereo not drawn) [SC-442, 2-[4-[[3-(Difluoro-methyl)-5-fluoro-phenyl]sulfonyl]-4-methyl-tetrahydro-pyran-2-yl]-3-methyl-5-methylsulfonyl-pyridine]	40 to 75%
CC(C)c1cccc(S(=O)(=O)C2(C)CCOC(c3ncc(S(C)(=O)=O)cc3Cl)C2)c1 (stereo not drawn) [SC-446, 3-Chloro-2-[4-[(3-isopropyl-phenyl)sulfonyl]-4-methyl-tetrahydro-pyran-2-yl]-5-methylsulfonyl-pyridine]	75 to 95%
